Patent publication US12251447B2, “Combined formulation comprising four linked cytotoxic T lymphocyte (CTL) epitopes and a PD-1 pathway inhibitor and methods of use thereof to treat cancer” (Taiho Pharmaceutical Co., Ltd., priority 2018, dated 2025)
Ends that are not written are not given here.

Columns and labels:
Format in all cases: in vivo, mouse
[1] = Example 6: rate of change in body weight; conditions: 18 days after cell transplantation vs Day 0
Protocol: (§1) Body weight was measured using an electronic balance for animals, and a rate of change in body weight (BWC) was calculated from the body weight measured on Day 0 (the day of grouping, BW0) and the body weight on 18 days after cell transplantation (BW) according to the following formula. Rate of change in body weight BWC (%)=(BW−BW0)/BW0×100
9-week-old B2 m^tm2(HLA-A24/H-2Db/B2M)Tai mice were randomly assigned to groups each involving 15 animals. The day of grouping was defined as Day 0.
This study was conducted in the same way as in Example 4 except that TPV07 or TPV08 was used instead of TPV06 as a peptide having 4 linked epitopes. TPV07 and TPV08, as in TPV06, were each prepared into 6 mg/mL using distilled water (Otsuka Pharmaceutical Factory Inc.) and then mixed with the equivalent amount of Montanide™ ISA 51 VG (SEPPIC) to prepare an emulsion, which was administered.

[2] = Example 4: rate of change in body weight; conditions: body weight 18 days after cell transplantation vs Day 0
Protocol: 8-week-old B2m^tm2(HLA-A24/H-2Db/B2M)Tai mice were randomly assigned to groups each involving 15 animals. The day of grouping was defined as Day 0. A 6 mg/mL peptide solution was prepared by dissolving a peptide having 4 linked epitopes TPV06 in distilled water (Otsuka Pharmaceutical Factory Inc.), and filled into the B Braun Injekt syringe (B. Braun Melsungen AG). After the equivalent amount of Montanide™ ISA 51 VG (SEPPIC) was filled into another syringe, these syringes were connected to each other via a connector, and the peptide solution was thoroughly mixed with Montanide™ ISA 51 VG to prepare an emulsion. Also, an emulsion of distilled water mixed with the equivalent amount of Montanide™ ISA 51 VG was prepared as a vehicle control. Each of these emulsions was subcutaneously administered weekly in amounts of 100 μL each in the vicinity of base of tail of each B2m^tm2(HLA-A24/H-2Db/B2M)Tai mouse, and administrations were carried out three times in total (Days 0, 7, and 14). […]
Body weight was measured using an electronic balance for animals, and a rate of change in body weight (BWC) was calculated from the body weight measured on Day 0 (the day of grouping, BW0) and the body weight on 18 days after cell transplantation (BW) according to the following formula. […]

[3] = Example 5: rate of change in body weight; conditions: 18 days after cell transplantation vs Day 0
Protocol: as §1
9-week-old B2m^tm2(HLA-A24/H-2Db/B2M)Tai mice were randomly assigned to groups each involving 15 animals. The day of grouping was defined as Day 0.
This study was conducted in the same way as in Example 4 except that an anti-mouse PD-L1 antibody was used instead of the anti-mouse PD-1 antibody. GoInVivo™ Purified anti-mouse CD274 (B7-H1, PD-L1) (Clone: 10F.9G2, BioLegend, Inc.) was prepared as an anti-mouse PD-L1 antibody (anti-mPD-L1 Ab) into 1 mg/mL using D-PBS (FUJIFILM Wako Pure Chemical Corp.) immediately before administration. One week after final administration of the emulsions (Day 21), the anti-mouse PD-L1 antibody was intraperitoneally administered at 200 μg/body.

| Sequence | BWC (%) change in body weight [1] | BWC (%) rate of change in body weight [2] | BWC (%) change in body weight [3] |
| --- | --- | --- | --- |
| DYSARWNEIRRQIRPIFSNRRRVYDYNCHVDLRRASLDSDPWV [TPV07, PEP5-RR-PEP9-RR-PEP6-RR-PEP2] | 18.9% |  |  |
| DYSARWNEIRRQIRPIFSNRRRVYDYNCHVDLRRLLQAEAPRL [TPV06, PEP5-RR-PEP9-RR-PEP6-RR-PEP4] |  | 27.0% | 21.9% |
| DYSARWNEIRRQIRPIFSNRRRVYDYNCHVDLRRILEQSGEWWK [TPV08, PEP5-RR-PEP9-RR-PEP6-RR-PEP10] | 21.7% |  |  |
